# According to article PMC4066871 (Bioorganic & medicinal chemistry letters, 2013):
# Legend:
# [1] = target: T1, GIRK1/GIRK4 (Homo sapiens, UniProt P48544+P48549); conditions: GIRK1/2 activator vs GIRK1/4; cited from earlier work
# T1 sequence (P48549 1-501): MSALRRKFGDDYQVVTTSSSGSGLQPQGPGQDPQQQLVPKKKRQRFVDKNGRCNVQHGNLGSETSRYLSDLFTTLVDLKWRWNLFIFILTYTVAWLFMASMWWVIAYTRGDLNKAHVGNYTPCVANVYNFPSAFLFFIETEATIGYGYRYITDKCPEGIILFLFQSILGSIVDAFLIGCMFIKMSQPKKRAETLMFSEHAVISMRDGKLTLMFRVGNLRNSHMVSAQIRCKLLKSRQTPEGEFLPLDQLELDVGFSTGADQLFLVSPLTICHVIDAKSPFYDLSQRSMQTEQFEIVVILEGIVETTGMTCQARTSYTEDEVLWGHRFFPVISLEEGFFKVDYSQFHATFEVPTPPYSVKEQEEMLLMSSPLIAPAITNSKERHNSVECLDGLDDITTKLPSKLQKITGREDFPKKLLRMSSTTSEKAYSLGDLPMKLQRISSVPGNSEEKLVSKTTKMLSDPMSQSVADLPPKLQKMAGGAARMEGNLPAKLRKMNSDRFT
# T1 sequence (P48544 1-419): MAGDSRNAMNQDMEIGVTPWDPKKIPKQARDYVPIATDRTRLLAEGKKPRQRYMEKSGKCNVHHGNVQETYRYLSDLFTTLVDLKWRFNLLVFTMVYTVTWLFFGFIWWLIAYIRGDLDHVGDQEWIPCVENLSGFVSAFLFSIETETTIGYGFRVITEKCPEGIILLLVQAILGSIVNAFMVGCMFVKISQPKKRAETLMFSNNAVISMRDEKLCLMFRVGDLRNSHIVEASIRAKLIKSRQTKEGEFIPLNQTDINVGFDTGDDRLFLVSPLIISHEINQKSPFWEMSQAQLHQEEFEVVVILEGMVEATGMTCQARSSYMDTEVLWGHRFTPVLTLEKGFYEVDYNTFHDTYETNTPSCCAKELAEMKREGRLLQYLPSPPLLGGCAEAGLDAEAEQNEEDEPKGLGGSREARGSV
# [2] = tested on: other K+ channels; conditions: cited from earlier work
# [3] = tested on: GIRK1/2; conditions: cited from earlier work
# [4] = tested on: GIRK2/3; conditions: cited from earlier work
# [5] = target: T2, GIRK1/GIRK2 (Homo sapiens, UniProt P48051+P48549); test: GIRK1/2 thallium flux assay in stably transfected HEK-293 cells; type: cell-based
# T2 sequence (P48549 1-501): T1 sequence (P48549 1-501)
# T2 sequence (P48051 1-423): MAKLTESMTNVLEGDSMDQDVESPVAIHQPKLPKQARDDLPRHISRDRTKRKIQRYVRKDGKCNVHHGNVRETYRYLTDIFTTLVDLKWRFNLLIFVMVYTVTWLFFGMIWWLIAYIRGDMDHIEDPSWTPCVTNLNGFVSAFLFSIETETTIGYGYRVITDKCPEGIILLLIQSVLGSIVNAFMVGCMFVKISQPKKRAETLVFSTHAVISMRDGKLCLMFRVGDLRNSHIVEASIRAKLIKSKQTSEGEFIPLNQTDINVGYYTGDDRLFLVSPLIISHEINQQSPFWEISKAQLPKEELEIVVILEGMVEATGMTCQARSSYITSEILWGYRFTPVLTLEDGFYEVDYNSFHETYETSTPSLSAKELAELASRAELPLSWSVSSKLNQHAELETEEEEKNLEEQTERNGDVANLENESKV
# [6] = target: T1, GIRK1/GIRK4; test: GIRK1/4 thallium flux assay in stably transfected HEK-293 cells; type: cell-based
# [7] = tested on: GIRK; conditions: cited from earlier work
SMILES,GIRK1/2 activity (in words) [5],GIRK1/4 activity (in words) [6],other results
Cc1cc(NC(=O)Nc2ccc(F)c(F)c2)n(-c2ccccc2)n1 [Compd 2],,,"Selectivity for GIRK1/2 vs GIRK1/4 [1]: ~ 10 fold; Activity on other K+ channels (in words) [2]: inactive; CNS penetration (in words) [3]: centrally penetrant; Anti-epileptic properties (in words) ([3]; mice, via GIRK1/2 activation): established anti-epileptic properties in mice; Activity on GIRK2/3 (in words) [4]: inactive"
CN(C)S(=O)(=O)c1cccc(NC(=O)Cc2ccccc2Cl)c1 [Compd 3b],diminished potency and lost efficacy,maintained potency and efficacy,
CN(C)S(=O)(=O)c1cccc(NC(=O)Cc2ccc(Cl)cc2)c1 [Compd 3c],diminution in potency,diminution in potency,
Cc1ccc(NC(=O)Cc2ccc(F)cc2)cc1S(=O)(=O)N(C)C [Compd 3d],diminution in potency,diminution in potency,
O=C(Cc1ccccc1Cl)Nc1cccc(Cl)c1 [Compd 8g],,"selective, partial GIRK1/4 activators",
O=C(Cc1ccccc1Cl)Nc1ccc(C(F)(F)F)cc1 [Compd 8h],,"selective, partial GIRK1/4 activators",
CCO [ethanol],,,Concentration known to activate GIRK [7]: hundreds of millimolar
C[C@@H]1O[C@@H](O[C@H]2[C@H](Oc3cc(O)c4c(c3)O[C@H](c3ccc(O)cc3)CC4=O)O[C@H](CO)[C@@H](O)[C@@H]2O)[C@H](O)[C@H](O)[C@H]1O [naringin],,,"EC50 ([7]; read-out: GIRK activation EC50, reported value): > 100 µM"
